Test results as given in patent publication US20230066946A1, “1,5-DIPHENYLPYRAZOLYL-3-OXYALKYL ACIDS AND 1-PHENYL-5-THIENYLPYRAZOLYL-3-OXYALKYL ACIDS AND THE USE THEREOF FOR CONTROL OF UNWANTED PLANT GROWTH” (Bayer Aktiengesellschaft, priority 2019, published 2023).

Assays:
ECHCG [1] = experiment: Pre-emergence herbicidal action against ECHCG; type: in vivo, Echinochloa crus-galli; conditions: scored visually after about 3 weeks vs untreated controls, 100% = plants have died, 0% = like control plants
Outline: (§1)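 Scoring is visual, in percent relative to untreated pots, roughly 3 weeks after soil-surface application. Rates were 1280 or 320 g/ha, delivered as WP or EC preparations with 0.5% additive in 600 L/ha water onto freshly sown, covered sandy loam.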

STEME [2] = experiment: Post-emergence herbicidal action against STEME; type: in vivo, Stellaria media; conditions: visual rating about 3 weeks after treatment
Outline: (§2)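 Weeds grown in sandy loam under greenhouse conditions were sprayed at the one-leaf stage, 2-3 weeks after sowing. Compounds were applied as WP or EC formulations in water with 0.5% additive at 600 L/ha, at 1280 or 320 g/ha. Activity was rated visually about 3 weeks later against untreated controls (0-100%).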

STEME [3] = experiment: Pre-emergence herbicidal action against STEME; type: in vivo, Stellaria media; conditions: scored visually after about 3 weeks vs untreated controls
Outline: as §1

AMARE [4] = experiment: Pre-emergence herbicidal action against AMARE; type: in vivo, Amaranthus retroflexus; conditions: scored visually after about 3 weeks vs untreated controls; for Pre-emergence action against AMARE in %: 1280 g/ha; for Pre-emergence action at 320 g/ha against AMARE in %: 100% = plants have died, 0% = like control plants
Outline: as §1

harmful plants = experiment: Pre-emergence herbicidal action, summary of Tables 4.1-4.15; type: in vivo; conditions: result in words
Text: (§3) Seeds of mono- and dicotyledonous weed plants are placed in plastic pots in sandy loam soil (doubly sown with one species each of mono- or dicotyledonous weed plants per pot) and covered with soil. The compounds of the invention, formulated in the form of wettable powders (WP) or as emulsion concentrates (EC), are then applied onto the surface of the covering soil as aqueous suspension or emulsion with addition of 0.5% additive at a water application rate equivalent to 600 litres per hectare. After the treatment, the pots are placed in a greenhouse and kept under good growth conditions for the trial plants. After about 3 weeks, the effect of the preparations is scored visually in comparison with untreated controls as percentages. For example, 100% activity=the plants have died, 0% activity=like control plants.
Tables 4.1-4.15 below show the effects of selected compounds of the general formula (I) according to Tables 1 to 3 on various harmful plants at an application rate corresponding to 1280 or 320 g/ha, which have been obtained by the aforementioned experimental method.
For example, compounds no. I-008, I-056, I-057, I-061, I-067, I-070 and I-072 applied by the pre-emergence method have very good action (80% to 100% herbicidal action) against harmful plants such as Alopecurus myosuroides, Amaranthus retroflexus, Matricaria inodora, Polygonum convolvulus, Setaria viridis and Stellaria media at an application rate of 1.28 kg of active substance or less per hectare.

SETVI [5] = experiment: Pre-emergence herbicidal action against SETVI; type: in vivo, Setaria viridis; conditions: 1280 g/ha, scored visually after about 3 weeks vs untreated controls
Outline: as §1

MATIN [6] = experiment: Post-emergence herbicidal action against MATIN; type: in vivo, Matricaria inodora; conditions: 1280 g/ha, visual rating about 3 weeks after treatment
Outline: as §2

MATIN [7] = experiment: Pre-emergence herbicidal action against MATIN; type: in vivo, Matricaria inodora; conditions: 1280 g/ha, scored visually after about 3 weeks vs untreated controls
Text: as §3, with “control plants. [table] Tables 4.1-4.15 below show the effects of selected compounds of the general formula (I) according to Tables 1 to 3 on various harmful plants at an application rate corresponding to 1280 or 320 g/ha, which have been obtained by the aforementioned experimental method.” for “control plants.”

VERPE [8] = experiment: Post-emergence herbicidal action against VERPE; type: in vivo, Veronica persica; conditions: 320 g/ha, visual rating about 3 weeks after treatment
Experimental: (§4) [table] Seeds of mono- and dicotyledonous weed plants are placed in plastic pots in sandy loam soil (twin sowing with one species each of mono- or dicotyledonous weed plants per pot), covered with soil and cultivated in a greenhouse under controlled growth conditions. 2 to 3 weeks after sowing, the test plants are treated at the one-leaf stage. The compounds of the invention, formulated in the form of wettable powders (WP) or as emulsion concentrates (EC), are applied to the green parts of the plants as aqueous suspension or emulsion with addition of 0.5% additive at a water application rate equivalent to 600 litres per hectare. After the test plants have been kept in the greenhouse under optimum growth conditions for about 3 weeks, the activity of the preparations is rated visually in comparison to untreated controls. For example, 100% activity=the plants have died, 0% activity=like control plants. Tables 5.1-5.16 below show the effects of selected compounds of the general formula (I) according to Tables 1 to 3 on various harmful plants at an application rate corresponding to 1280 or 320 g/ha, which have been obtained by the aforementioned experimental method.

AMARE [9] = experiment: Post-emergence herbicidal action against AMARE; type: in vivo, Amaranthus retroflexus; conditions: visual rating about 3 weeks after treatment
Outline: as §2

SETVI [10] = experiment: Post-emergence herbicidal action against SETVI; type: in vivo, Setaria viridis; conditions: 1280 g/ha, post-emergence at one-leaf stage, rated visually after about 3 weeks vs untreated controls
Outline: as §2

ECHCG [11] = experiment: Post-emergence herbicidal action against ECHCG; type: in vivo, Echinochloa crus-galli; conditions: 1280 g/ha, post-emergence at one-leaf stage, rated visually after about 3 weeks vs untreated controls
Outline: as §2

VERPE [12] = experiment: Pre-emergence herbicidal action against VERPE; type: in vivo, Veronica persica; conditions: 320 g/ha, scored visually after about 3 weeks vs untreated controls
Text: as §3, with “control plants. [table] Tables 4.1-4.15 below show the effects of selected compounds of the general formula (I) according to Tables 1 to 3 on various harmful plants at an application rate corresponding to 1280 or 320 g/ha, which have been obtained by the aforementioned experimental method.” for “control plants.”

POLCO = experiment: Pre-emergence herbicidal action against POLCO; type: in vivo, Polygonum convolvulus; conditions: 320 g/ha, scored visually after about 3 weeks vs untreated controls
Text: as §3, with “control plants. [table] Tables 4.1-4.15 below show the effects of selected compounds of the general formula (I) according to Tables 1 to 3 on various harmful plants at an application rate corresponding to 1280 or 320 g/ha, which have been obtained by the aforementioned experimental method.” for “control plants.”

PHBPU = experiment: Post-emergence herbicidal action against PHBPU; type: in vivo, Pharbitis purpurea; conditions: 320 g/ha, visual rating about 3 weeks after treatment
Experimental: as §4

VIOTR = experiment: Post-emergence herbicidal action against VIOTR; type: in vivo, Viola tricolor; conditions: 320 g/ha, visual rating about 3 weeks after treatment
Experimental: as §4

Row | Compound | Pre-emergence action at 1280 g/ha against ECHCG in % (ECHCG [1]) | Post-emergence action against STEME in % (STEME [2]; 1280 g/ha) | Pre-emergence action against STEME in % (STEME [3]; 1280 g/ha) | Pre-emergence action against AMARE in % (AMARE [4]) | herbicidal efficacy against harmful plants in the case of pre-emergence treatment (harmful plants) | Pre-emergence action against SETVI in % (SETVI [5]) | Post-emergence action against MATIN in % (MATIN [6]) | Pre-emergence action against MATIN in % (MATIN [7]) | Post-emergence action against VERPE in % (VERPE [8]) | Post-emergence action against AMARE in % (AMARE [9]; 1280 g/ha) | Post-emergence action against SETVI in % (SETVI [10]) | Post-emergence action against ECHCG in % (ECHCG [11]) | Pre-emergence action against VERPE in % (VERPE [12]) | Pre-emergence action against STEME in % (STEME [3]; 320 g/ha) | Pre-emergence action at 320 g/ha against AMARE in % (AMARE [4]) | Pre-emergence action against POLCO in % (POLCO) | Post-emergence action against AMARE in % (AMARE [9]; 320 g/ha) | Post-emergence action against PHBPU in % (PHBPU) | Post-emergence action against VIOTR in % (VIOTR) | Post-emergence action against STEME in % (STEME [2]; 320 g/ha)
1 | O=C(O)COc1nn(-c2ccc(F)cc2)c(-c2cccc(F)c2)c1[N+](=O)[O-] [I-121] | 100% | 100% | 100% | 90% | good herbicidal efficacy | 100% | 90% |  |  |  |  |  |  |  |  |  |  |  |  | 
2 | COC(=O)COc1nn(-c2ccc(Cl)cc2)c(-c2cccc(F)c2)c1C#N [I-048] |  |  |  |  |  |  |  | 80% | 80% |  |  |  |  |  |  |  |  |  |  | 
3 | COC(=O)CNC(=O)COc1nn(-c2ccc(F)cc2)c(-c2cccc(F)c2)c1Cl [III-027] | 100% | 90% | 100% | 100% | good herbicidal efficacy | 90% | 100% |  |  | 90% | 100% | 90% |  |  |  |  |  |  |  | 
4 | C=CCNC(=O)COc1nn(-c2ccccc2F)c(-c2ccccc2)c1Br [III-003] | 100% |  | 100% | 100% | good herbicidal efficacy | 100% |  |  | 80% | 100% | 100% | 100% | 100% | 100% | 100% | 100% | 80% | 80% |  | 
5 | C=CCNC(=O)COc1nn(-c2ccccc2F)c(-c2ccc(F)c(F)c2)c1Br [III-053] | 100% | 100% | 100% | 90% | good herbicidal efficacy | 100% | 90% |  |  |  | 100% | 100% |  |  |  |  |  |  |  | 
6 | CC(Oc1nn(-c2ccccc2)c(-c2ccc(F)cc2)c1Br)C(=O)O (stereo not shown) [I-138, 2-{[4-Bromo-5-(4-fluorophenyl)-1-phenyl-1H-pyrazol-3-yl]oxy}propanoic acid] | 100% | 100% | 100% | 100% | good herbicidal efficacy | 100% |  |  |  |  |  |  |  |  |  |  |  |  |  | 
7 | NCc1ccccc1.O=C(O)COc1nn(-c2cccc(F)c2)c(-c2ccccc2)c1I [II-13] |  |  | 90% | 100% | good herbicidal efficacy |  | 100% |  |  |  |  |  |  |  |  |  |  |  |  | 
8 | COC(=O)COc1nn(-c2cccc(Cl)c2)c(-c2ccc(F)c(F)c2)c1Cl [I-026] |  |  |  | 80% |  |  |  | 90% |  | 80% |  |  |  |  |  |  |  | 90% | 80% | 
9 | C=CCNC(=O)COc1nn(-c2ccc(F)cc2)c(-c2cccc(F)c2)c1Cl [III-022] | 100% | 100% | 100% | 90% | good herbicidal efficacy | 100% |  |  |  | 90% | 100% | 90% |  |  |  |  |  |  |  | 
10 | COC(=O)COc1nn(-c2cccc(F)c2)c(-c2ccccc2)c1Cl [I-016] |  | 80% | 80% | 100% |  |  |  | 90% |  | 80% | 80% | 80% |  |  |  |  |  | 80% |  | 
11 | COC(=O)COc1nn(-c2cccc(F)c2)c(-c2ccccc2)c1C#N [I-023] |  | 80% |  | 90% |  |  | 80% | 100% |  | 80% |  |  | 90% |  | 90% |  |  | 80% | 80% | 80%
